From the NIST ThermoML archive (doi:10.1021/acs.jced.8b00132)
Several values for one entry are separate records, joined by “and”; a condition that tells them apart may be missing. Equal values may be shown once.

Conditions: transient hot wire

O=C(C(F)(F)C(F)(F)F)C(F)(C(F)(F)F)C(F)(F)F [dodecafluoro-2-methylpentan-3-one]
Conditions	thermal conductivity
301.59 K, 15869 kPa, Liquid	0.06313 W/m/K
301.6 K, 48023 kPa, Liquid	0.07341 W/m/K
301.6 K, 48035 kPa, Liquid	0.07339 W/m/K
301.61 K, 9935 kPa, Liquid	0.06132 W/m/K
301.61 K, 9939 kPa, Liquid	0.0613 W/m/K
301.63 K, 185 kPa, Liquid	0.05695 W/m/K
301.63 K, 186 kPa, Liquid	0.05695 W/m/K
301.65 K, 38555 kPa, Liquid	0.07081 W/m/K
301.65 K, 38556 kPa, Liquid	0.07081 W/m/K
301.66 K, 4510 kPa, Liquid	0.05903 W/m/K
301.67 K, 181 kPa, Liquid	0.05696 W/m/K and 0.05695 W/m/K
301.67 K, 4513 kPa, Liquid	0.05926 W/m/K
301.68 K, 68591 kPa, Liquid	0.07706 W/m/K
301.68 K, 68604 kPa, Liquid	0.07747 W/m/K
301.69 K, 29956 kPa, Liquid	0.06826 W/m/K
301.69 K, 29958 kPa, Liquid	0.06828 W/m/K
301.69 K, 68130 kPa, Liquid	0.07843 W/m/K
301.7 K, 58476 kPa, Liquid	0.07534 W/m/K
301.7 K, 68201 kPa, Liquid	0.07832 W/m/K
301.71 K, 22368 kPa, Liquid	0.06584 W/m/K and 0.06583 W/m/K
301.71 K, 48170 kPa, Liquid	0.07234 W/m/K
301.71 K, 58480 kPa, Liquid	0.07563 W/m/K
301.72 K, 15988 kPa, Liquid	0.06294 W/m/K
301.72 K, 15989 kPa, Liquid	0.0629 W/m/K
301.72 K, 48184 kPa, Liquid	0.07274 W/m/K
301.73 K, 38646 kPa, Liquid	0.06956 W/m/K
301.73 K, 38651 kPa, Liquid	0.0696 W/m/K
301.75 K, 9736 kPa, Liquid	0.06053 W/m/K
301.75 K, 59377 kPa, Liquid	0.07624 W/m/K
301.75 K, 59380 kPa, Liquid	0.07624 W/m/K
301.75 K, 68800 kPa, Liquid	0.07711 W/m/K
301.76 K, 9735 kPa, Liquid	0.06062 W/m/K
301.76 K, 15639 kPa, Liquid	0.06344 W/m/K
301.76 K, 29978 kPa, Liquid	0.06731 W/m/K
301.76 K, 68808 kPa, Liquid	0.07639 W/m/K
301.77 K, 15644 kPa, Liquid	0.06346 W/m/K
301.78 K, 121 kPa, Liquid	0.05702 W/m/K and 0.05701 W/m/K
301.79 K, 4434 kPa, Liquid	0.05801 W/m/K
301.79 K, 4440 kPa, Liquid	0.05822 W/m/K
301.79 K, 22438 kPa, Liquid	0.06507 W/m/K
301.79 K, 22452 kPa, Liquid	0.06502 W/m/K
301.82 K, 102 kPa, Liquid	0.05674 W/m/K
301.82 K, 48012 kPa, Liquid	0.07336 W/m/K
301.82 K, 48021 kPa, Liquid	0.07338 W/m/K
301.83 K, 95 kPa, Liquid	0.05685 W/m/K
301.85 K, 9941 kPa, Liquid	0.06128 W/m/K
301.85 K, 9948 kPa, Liquid	0.06126 W/m/K
301.87 K, 38549 kPa, Liquid	0.07078 W/m/K
301.87 K, 38555 kPa, Liquid	0.07047 W/m/K
301.88 K, 34 kPa, Gas	0.01211 W/m/K
301.88 K, 35 kPa, Gas	0.01203 W/m/K
301.9 K, 185 kPa, Liquid	0.05689 W/m/K
301.91 K, 185 kPa, Liquid	0.05664 W/m/K
301.91 K, 4509 kPa, Liquid	0.059 W/m/K
301.91 K, 29959 kPa, Liquid	0.06823 W/m/K
301.91 K, 67990 kPa, Liquid	0.07824 W/m/K
301.91 K, 68063 kPa, Liquid	0.07829 W/m/K
301.92 K, 29958 kPa, Liquid	0.06824 W/m/K
301.93 K, 181 kPa, Liquid	0.05689 W/m/K and 0.05687 W/m/K
301.94 K, 4507 kPa, Liquid	0.05898 W/m/K
301.95 K, 22372 kPa, Liquid	0.06576 W/m/K
301.95 K, 22377 kPa, Liquid	0.06549 W/m/K
301.97 K, 59371 kPa, Liquid	0.07623 W/m/K
301.97 K, 59377 kPa, Liquid	0.07622 W/m/K
302.01 K, 15644 kPa, Liquid	0.06317 W/m/K
302.01 K, 15646 kPa, Liquid	0.06342 W/m/K
302.03 K, 121 kPa, Liquid	0.05696 W/m/K
302.04 K, 15871 kPa, Liquid	0.0631 W/m/K
302.04 K, 15874 kPa, Liquid	0.0632 W/m/K
302.04 K, 48005 kPa, Liquid	0.07334 W/m/K
302.05 K, 48000 kPa, Liquid	0.07334 W/m/K
302.09 K, 9944 kPa, Liquid	0.06121 W/m/K
302.09 K, 68569 kPa, Liquid	0.07801 W/m/K
302.09 K, 68583 kPa, Liquid	0.07807 W/m/K
302.1 K, 9951 kPa, Liquid	0.06119 W/m/K
302.1 K, 38544 kPa, Liquid	0.07073 W/m/K
302.11 K, 38546 kPa, Liquid	0.07074 W/m/K
302.13 K, 58450 kPa, Liquid	0.07511 W/m/K
302.13 K, 58453 kPa, Liquid	0.07504 W/m/K
302.15 K, 15982 kPa, Liquid	0.0631 W/m/K
302.15 K, 29954 kPa, Liquid	0.06819 W/m/K and 0.0682 W/m/K
302.15 K, 48164 kPa, Liquid	0.07319 W/m/K
302.16 K, 15975 kPa, Liquid	0.06301 W/m/K
302.16 K, 48161 kPa, Liquid	0.07327 W/m/K
